Data on 16 substances can be found in patent US12115209B2, “ROMO1-derived antimicrobial peptides including lysine substitution and variants thereof” (KOREA UNIVERSITY RESEARCH AND BUSINESS FOUNDATION, priority 2019, dated 2024).

What all share (format): cell-based
Assay [1] deals with Methicillin-resistant Staphylococcus aureus (MRSA, ATCC 33591). The assay can be described thus: Minimum bactericidal concentration (MBC) assay. Details: unit: µg/mL. The method in brief:
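Peptide at 0 to 300 μg/ml reacted 1 h at 37 °C with 1×10^5 CFU/ml bacteria in SP buffer (10 mM sodium phosphate, 1% TSB), bacteria pre-grown in 3% TSB. Aliquots then spread on TS agar and checked for colonies after 18 h at 37 °C.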

The subject of assay [2] is Pseudomonas aeruginosa (ATCC 27853). The experiment in a line: Minimum bactericidal concentration (MBC) assay. Details: MBC Pseudomonas aeruginosa: unit: µg/mL. Put shortly: (§1)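 Strains were cultured in 3% TSB at 37° C and brought to 2×10^5 CFU/ml in SP buffer. This suspension was mixed with peptide (0–300 μg/ml) for 1 h at 37° C. Reaction mixtures were then plated on TS agar and incubated 18 h.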

The subject of assay [3] is Staphylococcus aureus (ATCC 29213). The experiment in a line: Minimum bactericidal concentration (MBC) assay. Details: MBC Staphylococcus aureus: unit: µg/mL. Put shortly:
as §1

Assay [4] relates to Pseudomonas aeruginosa, Staphylococcus aureus, CRPA, MRSA. The experiment in a line: Increase in antibacterial activity (MBC) compared with KU-5878.
The next assay has as its system CRPA. The assay can be described thus: Minimum bactericidal concentration (MBC) assay. Details: unit: µg/mL.
Where [5] appears, read: mark = antibacterial activity increased compared with KU-5878.

The substance “KTMM-SGGTFGTFMAIGMGIR [Peptide 5878-4620]” had an MBC MRSA in assay [1] (Tables 11-21, no unit printed) of 100 µg/mL. The substance further returned an MBC Pseudomonas aeruginosa in assay [2] (Tables 11-21, no unit printed) of 100 µg/mL. For the same substance, in assay [3] (Tables 11-21, no unit printed), the MBC Staphylococcus aureus is 90 µg/mL. In assay [4] (setting [5]), this substance yielded an Increase in activity of 0. The same substance gave an MBC CRPA in the assay on CRPA (Tables 11-21, no unit printed) of 100 µg/mL.
The substance “KTMMQS-GTFGTFMAIGMGIR [Peptide 5878-d64G]” came in with an MBC MRSA in assay [1] (Tables 11-21, no unit printed) of 100 µg/mL. The same substance had an MBC Pseudomonas aeruginosa in assay [2] (Tables 11-21, no unit printed) of 100 µg/mL. This substance also returned an MBC Staphylococcus aureus in assay [3] (Tables 11-21, no unit printed) of 100 µg/mL. The Increase in activity in assay [4] (setting [5]) is 0. This substance also returned an MBC CRPA in the assay with CRPA (Tables 11-21, no unit printed) of 110 µg/mL.
For the substance “KTMMQSGG-FGTFMAIGMGIR [Peptide 5878-d66T]”, the MBC MRSA in assay [1] (Tables 11-21, no unit printed) amounted to 90 µg/mL. This substance came in with an MBC Pseudomonas aeruginosa in assay [2] (Tables 11-21, no unit printed) of 90 µg/mL. The MBC Staphylococcus aureus in assay [3] (Tables 11-21, no unit printed) turned out to be 90 µg/mL. This substance showed an Increase in activity in assay [4] (setting [5]) of 0. This substance yielded an MBC CRPA against CRPA (Tables 11-21, no unit printed) of 100 µg/mL.
“KTMMQSGGTF-TFMAIGMGIR [Peptide 5878-d68G]” gave an MBC MRSA in assay [1] (Tables 11-21, no unit printed) of 25 µg/mL. In assay [2] (Tables 11-21, no unit printed), this substance returned an MBC Pseudomonas aeruginosa of 25 µg/mL. This substance also came in with an MBC Staphylococcus aureus in assay [3] (Tables 11-21, no unit printed) of 20 µg/mL. The substance further gave an Increase in activity in assay [4] (setting [5]) of 0. In addition, the MBC CRPA against CRPA (Tables 11-21, no unit printed) was 18 µg/mL.
“KTMMQSGGTFGTFMAI-MGIR [Peptide 5878-d74G]” had an MBC MRSA in assay [1] (Tables 11-21, no unit printed) of 25 µg/mL. Moreover, the MBC Pseudomonas aeruginosa in assay [2] (Tables 11-21, no unit printed) turned out to be 20 µg/mL. The MBC Staphylococcus aureus in assay [3] (Tables 11-21, no unit printed) is 25 µg/mL. The substance also had an Increase in activity in assay [4] (setting [5]) of 0. This substance also registered an MBC CRPA with CRPA (Tables 11-21, no unit printed) of 30 µg/mL.
For the substance “KTMMQSGGTFGTFMAIG-GIR [Peptide 5878-d75M]”, the MBC MRSA in assay [1] (Tables 11-21, no unit printed) worked out at 110 µg/mL. In assay [2] (Tables 11-21, no unit printed), this substance came in with an MBC Pseudomonas aeruginosa of 100 µg/mL. In assay [3] (Tables 11-21, no unit printed), this substance gave an MBC Staphylococcus aureus of 100 µg/mL. In addition, the Increase in activity in assay [4] (setting [5]) was 0. In addition, the MBC CRPA with CRPA (Tables 11-21, no unit printed) stood at 100 µg/mL.
In assay [1] (Tables 11-21, no unit printed), “KTMMQSGGTFGTFMAIGM-IR [Peptide 5878-d76G]” showed an MBC MRSA of 90 µg/mL. In addition, the MBC Pseudomonas aeruginosa in assay [2] (Tables 11-21, no unit printed) came to 80 µg/mL. The substance also displayed an MBC Staphylococcus aureus in assay [3] (Tables 11-21, no unit printed) of 70 µg/mL. Besides, the Increase in activity in assay [4] (setting [5]) is listed as 0. The MBC CRPA in the assay with CRPA (Tables 11-21, no unit printed) worked out at 90 µg/mL.
For “KTMMQSGGTFGTFMAIGMGIRKK [Peptide 5878-KK]”, the MBC MRSA in assay [1] (Tables 11-21, no unit printed) was determined as 16 µg/mL. For the same substance, the MBC Pseudomonas aeruginosa in assay [2] (Tables 11-21, no unit printed) worked out at 15 µg/mL. The substance further yielded an MBC Staphylococcus aureus in assay [3] (Tables 11-21, no unit printed) of 16 µg/mL. For the same substance, in assay [4] (setting [5]), the Increase in activity result is recorded as “◯”. The MBC CRPA in the assay with CRPA (Tables 11-21, no unit printed) worked out at 16 µg/mL.
On to “KTMMQSGGTFGTFMAIGMGIRRRR [Peptide 5878-3R]”, for which the MBC MRSA in assay [1] (Tables 11-21, no unit printed) was found to be 10 µg/mL. In assay [2] (Tables 11-21, no unit printed), the MBC Pseudomonas aeruginosa was 8 µg/mL. Further, in assay [3] (Tables 11-21, no unit printed), the MBC Staphylococcus aureus stood at 8 µg/mL. Also, the Increase in activity entry in assay [4] (setting [5]) is “◯”. The substance further had an MBC CRPA against CRPA (Tables 11-21, no unit printed) of 8 µg/mL.
Consider TKMMKKGGKFGTFMAIGMGIR [Peptide K4-K58T], for which the “MBC MRSA” value in assay [1] (Tables 11-21, no unit printed) was 4. The “MBC Pseudomonas aeruginosa” value in assay [2] (Tables 11-21, no unit printed) was 3. The “MBC Staphylococcus aureus” value in assay [3] (Tables 11-21, no unit printed) turned out to be 3. In assay [4] (setting [5]), the Increase in activity result is “◯”. The “MBC CRPA” value against CRPA (Tables 11-21, no unit printed) was 3.
Regarding d 58K 60M 71M 72A (MKKGGKFGTF), in assay [1] (MRSA), the MBC MRSA is 20 µg/mL. Besides, the MBC Pseudomonas aeruginosa in assay [2] (Pseudomonas aeruginosa) was 20 µg/mL. This substance also had an MBC Staphylococcus aureus in assay [3] (Staphylococcus aureus) of 15 µg/mL. For the same substance, the Increase in activity result in assay [4] (compared with KU-5878) was “◯”. Further, the MBC CRPA against CRPA (CRPA) came out at 20 µg/mL.
On to d 58K 64G 72A 75M (GKFGTFM), for which, in assay [1] (MRSA), the MBC MRSA amounted to 8 µg/mL. Moreover, in assay [2] (Pseudomonas aeruginosa), the MBC Pseudomonas aeruginosa stood at 6 µg/mL. The MBC Staphylococcus aureus in assay [3] (Staphylococcus aureus) was 6 µg/mL. Also, the Increase in activity entry in assay [4] (compared with KU-5878) is on record as “◯”. The substance also showed an MBC CRPA with CRPA (CRPA) of 8 µg/mL.
Regarding d 60M 61M 71M 75M (KKGGKFGTF), the MBC MRSA in assay [1] (MRSA) was found to be 2 µg/mL. The substance further yielded an MBC Pseudomonas aeruginosa in assay [2] (Pseudomonas aeruginosa) of 2 µg/mL. Also, in assay [3] (Staphylococcus aureus), the MBC Staphylococcus aureus was 1 µg/mL. The Increase in activity entry in assay [4] (compared with KU-5878) is given as “◯”. In the assay with CRPA (CRPA), this substance registered an MBC CRPA of 2 µg/mL.
Substance d 60M 62K 71M 75M (KGGKFGTF) came in with an MBC MRSA in assay [1] (MRSA) of 3 µg/mL. The MBC Pseudomonas aeruginosa in assay [2] (Pseudomonas aeruginosa) is 2 µg/mL. In assay [3] (Staphylococcus aureus), the MBC Staphylococcus aureus came to 2 µg/mL. Besides, the Increase in activity entry in assay [4] (compared with KU-5878) was “◯”. In the assay with CRPA (CRPA), this substance registered an MBC CRPA of 3 µg/mL.
For the substance d 60M 69T 71M 75M (MKKGGKFG), the MBC MRSA in assay [1] (MRSA) is 2 µg/mL. Besides, in assay [2] (Pseudomonas aeruginosa), the MBC Pseudomonas aeruginosa was 2 µg/mL. The MBC Staphylococcus aureus in assay [3] (Staphylococcus aureus) is 1 µg/mL. Besides, the Increase in activity result in assay [4] (compared with KU-5878) is “◯”. The substance also had an MBC CRPA in the assay with CRPA (CRPA) of 2 µg/mL.
In assay [1] (MRSA), d 60M 71M 72A 75M (MKKGGKFGTF) registered an MBC MRSA of 3 µg/mL. In assay [2] (Pseudomonas aeruginosa), this substance showed an MBC Pseudomonas aeruginosa of 2 µg/mL. The substance further showed an MBC Staphylococcus aureus in assay [3] (Staphylococcus aureus) of 1 µg/mL. The Increase in activity entry in assay [4] (compared with KU-5878) is listed as “◯”. For the same substance, the MBC CRPA against CRPA (CRPA) was found to be 2 µg/mL.
